These results are taken from publication PMC12005787, “Synthetic Lethality of SHP2 and XIAP Suppresses Proliferation and Metastasis in KRAS‐mutant Nonsmall Cell Lung Cancer” (Advanced Science, 2025).

The structures appear in SMILES notation.

Series [1] has as its system NCI-H2122, A549, and NCI-H1944 cells. Nature of the series: Cell senescence β-galactosidase staining. It counts as cell-based, human. Particulars: NCI‐H2122 cells; candidate drugs 10 μM. Here is the method:
Cell senescence β-galactosidase staining
NCI-H2122, A549, and NCI-H1944 cells in the logarithmic growth phase were seeded into 48-well plates and cultured overnight. The supernatant was aspirated and fresh serum-free (0%), low-serum (3%), or regular serum (10%) medium with different drugs was added for 48 h. When the supernatant was discarded, β-galactosidase staining fixation fluid were added for 15 min and β-galactosidase staining solution were imported overnight at 37 ℃.
Finally, the staining results were recorded using an inverted microscope.

A further series deals with T1, SHP2 (Homo sapiens, UniProt Q06124).
T1 construct: endogenous in cells; host or cells: NCI-H2122
T1 sequence (Q06124 1-593): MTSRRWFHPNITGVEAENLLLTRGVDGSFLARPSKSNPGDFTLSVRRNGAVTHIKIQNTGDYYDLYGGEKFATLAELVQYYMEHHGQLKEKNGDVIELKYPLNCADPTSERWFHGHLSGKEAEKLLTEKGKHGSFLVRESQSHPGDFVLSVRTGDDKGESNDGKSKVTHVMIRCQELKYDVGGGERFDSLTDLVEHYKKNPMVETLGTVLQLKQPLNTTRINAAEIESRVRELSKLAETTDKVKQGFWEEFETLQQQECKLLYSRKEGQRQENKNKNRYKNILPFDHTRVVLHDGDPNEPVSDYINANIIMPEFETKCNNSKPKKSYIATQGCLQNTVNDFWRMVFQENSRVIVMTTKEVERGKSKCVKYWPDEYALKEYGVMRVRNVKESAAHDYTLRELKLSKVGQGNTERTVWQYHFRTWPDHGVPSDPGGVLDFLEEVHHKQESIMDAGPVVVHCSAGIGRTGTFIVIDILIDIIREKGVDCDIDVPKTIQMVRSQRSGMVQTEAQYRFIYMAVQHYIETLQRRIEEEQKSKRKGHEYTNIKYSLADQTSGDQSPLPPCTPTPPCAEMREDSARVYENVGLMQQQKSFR
Briefly: Cellular thermal shift assay (CETSA). It counts as binding. Particulars: NCI‐H2122 cell lysate. Here is the method: (§1) NCI‐H2122 cells were harvested and resuspended with pre‐cooled PBS containing 1% cocktail, which was then frozen in liquid nitrogen for 5 min and thawed in a water bath at 37 °C for 5 min for three repetitions. The supernatant was collected via centrifugation at 4 °C (15 000 × g, 20 min), divided into two equal portions; one was added with test drugs or various concentrations of embelin, and the other was added with DMSO as control and subsequently incubated at 25 °C for 30 min. All samples were heated at temperatures ranging from 52–70 °C for 3 min, and subsequently in an ice bath for 3 min and collected by centrifugation at 4 °C (15 000 × g, 20 min), and added with protein sampling buffer at 100 °C for 5 min, followed by analysis of protein stability using western blotting.

Series [2] has as its system KRAS‐mutant NSCLC cells in 3D culture. Nature of the series: Cell proliferation in 3D cell culture (ATP chemiluminescence). In kind it is cell-based. Here is the method:
(§2) supplies are listed in Supplementary Table S5. […]
For the adherent cell viability assay, cells in the logarithmic growth phase were seeded in 96-well culture plates at a density of 5×103 well-1 and incubated overnight. Diluted compounds or DMSO were added, or specific treatments were incubated at 37 °C and 5% CO2 for 24 h or 48 h. Cell viability was determined using CCK-8 or CellLightTM Cell Viability Assay Kit, according to the manufacturer's protocol. The luminescence signals of the treated samples were normalized to those of the DMSO group.
For spherical cell viability assays, cells in the logarithmic growth phase were inoculated ata density of 4×10^3 well-1 into 96-well spherical cell microplates and incubated at 37 °C, 5% CO2 for 24 h or 48 h. Cell viability was measured using the CellTiter-Glo® Luminescent Cell Viability 3D Cell Viability Assay Kit, according to the manufacturer’s protocol. The remaining steps were the same as those described above. […]
Figure S7. Targeting SHP2 and XIAP produces a synthetic lethal effect. (A) Effects of NSC-87877 on cell viability of A549 and NCI-H2122 cells after 24 and 48 h were determined using the CCK-8. Bars, ± SEM. […]
tailed Student’s t-test).(K) Effects of SHP099 and GDC-0152 separately and in combination with […] on the cell viability of human KRAS-WT and -mutant cells were assessed using a colony formation assay. […]

Another series deals with NCI‐H2122 tumor. Briefly: NCI-H2122 subcutaneous transplantation tumor model. Particulars: i.p., q2d. It counts as in vivo, BALB/c‐nu mouse. Here is the method:
NCI‐H2122 cells in the logarithmic growth phase were collected by mixing serum‐free RMPI‐1640 medium and Matrigel matrix gel, and injected subcutaneously into the right axilla of thymus‐less male BALB/c‐nu nude mice. Tumor volume was calculated according to V = ab^2/2 (where a and b are the long and short diameters of the tumor, respectively), and body weight was recorded every 3 days. When the tumor volume reached 100 mm^3, the mice were randomly divided into six groups (ten mice in each group): Control group (i.p, q2d), SHP099 (20 mg kg^−1, i.p, q2d) group, GDC‐0152 (20 mg kg^−1, i.p, q2d) group, SHP099 (20 mg kg^−1, i.p, q2d) + GDC‐ 0152 (20 mg kg^−1, i.p, q2d) co‐administration group, embelin (20 mg kg^−1, i.p, q2d) medium‐dose group and embelin (30 mg kg^−1, i.p, q2d) high‐dose group. When the tumor volume reached 1000 mm^3, all experimental mice were sacrificed, and tumor tissues and major organs, such as the heart, liver, spleen, lungs, and kidneys, were collected for further study.

For a further series, the system named is A549 and NCI‐H2122 cells. Briefly: Cell proliferation in monolayer culture (CCK-8). It counts as cell-based, human. Here is the method: (§3) For the adherent cell viability assay, cells in the logarithmic growth phase were seeded in 96-well culture plates at a density of 5×103 well-1 and incubated overnight. Diluted compounds or DMSO were added, or specific treatments were incubated at 37 °C and 5% CO2 for 24 h or 48 h. Cell viability was determined using CCK-8 or CellLightTM Cell Viability Assay Kit, according to the manufacturer's protocol. The luminescence signals of the treated samples were normalized to those of the DMSO group. […]
Figure S7. Targeting SHP2 and XIAP produces a synthetic lethal effect. (A) Effects of NSC-87877 on cell viability of A549 and NCI-H2122 cells after 24 and 48 h were determined using the CCK-8. Bars, ± SEM. The curves were plotted using a variable slope (four-parameter) non-linear fit. (B, E, F, and I) Effects of Na3VO4 (B), birinapant (E), BV-6 (F), and LCL161 (I) on cell viability of human NCI-H2122 cells at 48 h were determined using the CCK-8. *p < 0.05, **p < 0.01 and ***p < 0.001 compared to control group (unpaired two-tailed Student’s t-test).(C, G) Effects of SHP099 (C) and GDC-0152 (G) on cell viability after 24 and 48 h were determined using the CCK-8. Bars, ± SEM. The curves were plotted using a variable slope (four-parameter) non-linear fit.(D, H) Effects of SHP099 (D) and GDC-0152 (H) on cell viability were determined after 48 h using intracellular ATP chemiluminescence. **p < 0.01 and ***p < 0.001 compared to control group (unpaired two-tailed Student’s t-test).(J) Effects of SHP099 and GDC-0152 separately and in combination, and the effect of embelin for 24 h on the cell viability were assessed using intracellular ATP […]
tailed Student’s t-test).(K) Effects of SHP099 and GDC-0152 separately and in combination with […] on the cell viability of human KRAS-WT and -mutant cells were assessed using a colony formation assay. (L, M) A549 and NCI-H2122 cells were instantaneously transfected with siPTPN11 and siXIAP separately and together for 24 h under

The target of another series is T2, XIAP (Homo sapiens, UniProt P98170).
T2 construct: endogenous in cells; host or cells: NCI-H2122
T2 sequence (P98170 whole entry): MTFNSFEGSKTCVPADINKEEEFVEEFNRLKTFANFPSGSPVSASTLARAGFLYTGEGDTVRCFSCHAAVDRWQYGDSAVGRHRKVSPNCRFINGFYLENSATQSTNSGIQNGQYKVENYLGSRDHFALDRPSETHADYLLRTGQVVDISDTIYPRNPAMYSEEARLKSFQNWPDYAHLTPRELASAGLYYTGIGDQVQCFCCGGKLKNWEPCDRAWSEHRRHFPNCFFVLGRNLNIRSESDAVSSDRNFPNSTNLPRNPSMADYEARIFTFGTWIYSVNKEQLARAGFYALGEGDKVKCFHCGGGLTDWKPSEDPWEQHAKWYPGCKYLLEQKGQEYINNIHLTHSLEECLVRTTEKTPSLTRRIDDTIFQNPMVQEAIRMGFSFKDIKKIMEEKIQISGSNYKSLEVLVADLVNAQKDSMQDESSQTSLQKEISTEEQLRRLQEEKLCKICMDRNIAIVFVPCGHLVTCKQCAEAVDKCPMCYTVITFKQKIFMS
Briefly: Cellular thermal shift assay (CETSA). The note with it: 56 and 62 ℃. It counts as binding. Here is the method: as §1

The test system of the next series is NCI-H1975 cells. Briefly: Cell viability assay (CCK-8). In kind it is cell-based. The note with it: Homo sapiens, NCI-H1975, 24 h, NCI-H1975, RAS-wild type, EGFR L858R/T790M. Here is the method:
as §2
(§4) KRAS-mutant and wild-type cells are listed in Supplementary Table S7.
as §3

For the next series, the system named is A549 cells. Nature of the series: Cell viability assay (CCK-8). In kind it is cell-based. The note with it: Homo sapiens; A549, KRAS G12S, 24 h; read-out: IC50 at 24 h. The method, then: as §2, §4, §3

For the compound `CN[C@@H](C)C(=O)N[C@H](C(=O)N1CCC[C@H]1C(=O)Nc1snnc1-c1ccccc1)C1CCCCC1` [GDC‐0152], the “induction of cell senescence” value in series [1] was “induced cellular senescence”. For the same compound, the “effect on SHP2 protein stability (CETSA)” value at SHP2 is reported as “did not affect SHP2 protein stability”. Also, in series [2], the “effect on cell proliferation in 3D cell culture” value is on record as “partially inhibited cell proliferation”. Also, in the series with NCI‐H2122 tumor, the “effect on body weight of the mice” value is listed as “little or no effect on the body weight”; the “effect on weights of hearts, livers, lungs, and kidneys and structure of hearts and kidneys” value is listed as “no significant effect”. Also, the “effect on cell proliferation in monolayer cell culture mode” value (shortened to “effect … in monolayer cell culture mode”) in the series on A549 and NCI‐H2122 cells was “almost no effect”.
Turning to `CN[C@@H](C)C(=O)N[C@H](C(=O)N1CCC[C@H]1c1nc(C(=O)c2ccc(F)cc2)cs1)C1CCCCC1` [LCL‐161], the “induction of cell senescence” value in series [1] is “induced cellular senescence”. Further, the “effect on SHP2 protein stability (CETSA)” value on SHP2 was “did not affect SHP2 protein stability”. Moreover, the “effect … in monolayer cell culture mode” value in the series on A549 and NCI‐H2122 cells is “almost no effect”.
As for `O=S(=O)(O)c1ccc2cc(N=Nc3cc(S(=O)(=O)O)c4cccnc4c3O)ccc2c1` [NSC‐87877], the “effect on XIAP protein stability (CETSA)” value on XIAP is recorded as “did not affect XIAP protein stability”. Moreover, in the series on A549 and NCI‐H2122 cells, the “effect … in monolayer cell culture mode” value is “almost no effect”.
Taken in the same sequence, the figures for `[Na+].[Na+].[Na+].[O]=[V]([O-])([O-])[O-]` [Na3VO4] were “did not affect XIAP protein stability” and “almost no effect”.
With `C#Cc1cccc(Nc2ncnc3cc(OCCOC)c(OCCOC)cc23)c1` [erlotinib], the IC50 in the series on NCI-H1975 cells and in the series on A549 cells was greater than 100 µM in each case.

The IC50 is the concentration at which inhibition is half-maximal.
